Values after ≈ are worked out from the molar mass of the structure shown. Read-outs that look alike come from different tables or passages of the source.
Columns and labels:
Format in all cases: physicochemical
[1] = Kinetic solubility in SGF, FaSSIF, FeSSIF and water
Text: The parameters for kinetic solubility tests of the present disclosure are as follows:
When solubility test is used to predict the in vivo performance of a drug, it is critical to simulate in vivo conditions as closely as possible. For oral medication, Simulated Gastric Fluid (SGF), Fasted-State Simulated Intestinal Fluid (FaSSIF), Fed-State Simulated Intestinal Fluid (FeSSIF) can be used to simulate the condition in vivo and predict the effects of feeding, thus solubility in such mediums is closer to that in vivo.
20 mg of Form CSI and 20 mg of WO2014014835 Form A were suspended into 4.0 mL of SGF, 4.0 mL of FaSSIF, 4.0 mL of FeSSIF and 4.0 mL of water to get saturated solutions. After equilibrated for 1 h, 4 h, 8 h and 24 h, the concentrations (μg/mL) of Compound I of the saturated solutions were measured by UPLC.

[2] = Intrinsic dissolution (IDR); details: for IDR: slope of data within 5-120 minutes
Description: The parameters for intrinsic dissolution tests in the present disclosure are as follows:
Approximately 100 mg of Form CSI or WO2014014835 Form A was added into the cavity of the die, and then compressed at 10 kN and held for 0.5 minute to obtain a tablet having a surface area of 0.5 cm^2. The die with the tablet still embedded was put into a dissolution apparatus to test the intrinsic dissolution. The slope (in μg/min) of the regression line was calculated according to the data within 5-120 minutes. IDR (in μg/min/cm^2) was further calculated according to the slope.

[3] = Physical stability on grinding (XRPD); details: ground manually for 5 min in a mortar
Description: Form CSI and WO2014014835 Form A was ground manually for 5 min in a mortar.

Hygroscopicity by DVS = details: for Weight gain under 80% RH: DVS, 25° C.
Description: Dynamic Vapor Sorption (DVS) was measured via an SMS (Surface Measurement Systems Ltd.) intrinsic DVS instrument. Its control software is DVS-Intrinsic control software. Typical parameters for DVS test are as follows: Temperature: 25° C. Gas and flow rate: N2, 200 mL/min dm/dt: 0.002%/min RH range: 0% RH to 95% RH DVS was applied to test the hygroscopicity of Form CSI and WO2014014835 Form A with about 10 mg of samples. The weight gains at each relative humidity were recorded in a cycle of 0-95%-0 RH. XRPD test was applied before and after DVS. Description and definition of hygroscopicity (general notice 9103 drug hygroscopicity test guidelines in 2015 edition of Chinese Pharmacopoeia, test at 25° C.±1° C., 80% RH. The definition of hygroscopicity in the 9th European Pharmacopoeia 5.11 is similar to the Chinese Pharmacopoeia.).

[4] = Compressibility (tablet hardness, tensile strength); details: 80 mg, compressed at 10 kN
Description: ENERPAC manual tablet press was used for compression. 80 mg of Form CSI and WO2014014835 Form A were weighed and added into the dies of a φ6 mm round tooling, compressed at 10 kN, then stored at room temperature for 24 h until complete elastic recovery. Hardness (H) was tested with an intelligent tablet hardness tester. Diameter (D) and thickness (L) were tested with a caliper. Tensile strength of the powder was calculated with the following formula: T=2H/πDL*9.8. Under a certain force, the greater the tensile strength, the better the compressibility.

Kinetic solubility (concentration of Compound I in saturated solution) ([1]; FaSSIF, 1 hour): 241.2 µg/mL
solubility kinetic at 4 h ([1]; FaSSIF, thermodynamic from solid, FaSSIF, 4 hours, read-out: Kinetic solubility (concentration of Compound I in saturated solution)): 569 µg/mL (≈ 1620 µM)
solubility kinetic at 8 h ([1]; FaSSIF, thermodynamic from solid, FaSSIF, 8 hours, read-out: Kinetic solubility (concentration of Compound I in saturated solution)): 567 µg/mL (≈ 1610 µM)
solubility kinetic at 24 h ([1]; FaSSIF, thermodynamic from solid, FaSSIF, 24 hours, read-out: Kinetic solubility (concentration of Compound I in saturated solution)): 570 µg/mL (≈ 1620 µM)
solubility kinetic at 1 h ([1]; FeSSIF, thermodynamic from solid, FeSSIF, 1 hour, read-out: Kinetic solubility (concentration of Compound I in saturated solution)): 146 µg/mL (≈ 415 µM)
solubility kinetic at 4 h ([1]; FeSSIF, thermodynamic from solid, FeSSIF, 4 hours, read-out: Kinetic solubility (concentration of Compound I in saturated solution)): 150 µg/mL (≈ 426 µM)
solubility kinetic at 8 h ([1]; FeSSIF, thermodynamic from solid, FeSSIF, 8 hours, read-out: Kinetic solubility (concentration of Compound I in saturated solution)): 161 µg/mL (≈ 456 µM)
solubility kinetic at 24 h ([1]; FeSSIF, thermodynamic from solid, FeSSIF, 24 hours, read-out: Kinetic solubility (concentration of Compound I in saturated solution)): 269 µg/mL (≈ 762 µM)
Kinetic solubility (concentration of Compound I in saturated solution) ([1]; SGF, 1 hour): 3.6 µg/mL
Kinetic solubility (concentration of Compound I in saturated solution) ([1]; SGF, 4 hours): 3.7 µg/mL
Kinetic solubility (concentration of Compound I in saturated solution) ([1]; SGF, 8 hours): 3.7 µg/mL
Kinetic solubility (concentration of Compound I in saturated solution) ([1]; SGF, 24 hours): 3.6 µg/mL
Kinetic solubility (concentration of Compound I in saturated solution) ([1]; water, 1 hour): 4.7 µg/mL
Kinetic solubility (concentration of Compound I in saturated solution) ([1]; water, 4 hours): 7.9 µg/mL
Kinetic solubility (concentration of Compound I in saturated solution) ([1]; water, 8 hours): 8.4 µg/mL
Kinetic solubility (concentration of Compound I in saturated solution) ([1]; water, 24 hours): 10.1 µg/mL
Cumulative dissolution ([2]; pH4.5 PBS, 5 min, 37° C., 0.5 cm^2 tablet): 19.9 µg
Cumulative dissolution ([2]; pH4.5 PBS, 10 min): 24.1 µg
Cumulative dissolution ([2]; pH4.5 PBS, 15 min): 28.7 µg
Cumulative dissolution ([2]; pH4.5 PBS, 20 min): 34.0 µg
Cumulative dissolution ([2]; pH4.5 PBS, 25 min): 36.6 µg
Cumulative dissolution ([2]; pH4.5 PBS, 30 min): 40.2 µg
Cumulative dissolution ([2]; pH4.5 PBS, 45 min): 49.1 µg
Cumulative dissolution ([2]; pH4.5 PBS, 60 min): 59.4 µg
Cumulative dissolution ([2]; pH4.5 PBS, 90 min): 80.0 µg
Cumulative dissolution ([2]; pH4.5 PBS, 120 min): 98.2 µg
IDR ([2]; pH4.5 PBS): 1.3454 μg/min/cm^2
Cumulative dissolution ([2]; pH6.8 PBS, 5 min, 37° C., 0.5 cm^2 tablet): 439.4 µg
Cumulative dissolution ([2]; pH6.8 PBS, 10 min): 815.5 µg
Cumulative dissolution ([2]; pH6.8 PBS, 15 min): 1158.2 µg
Cumulative dissolution ([2]; pH6.8 PBS, 20 min): 1488.8 µg
Cumulative dissolution ([2]; pH6.8 PBS, 25 min): 1800.6 µg
Cumulative dissolution ([2]; pH6.8 PBS, 30 min): 2110.0 µg
Cumulative dissolution ([2]; pH6.8 PBS, 45 min): 2853.7 µg
Cumulative dissolution ([2]; pH6.8 PBS, 60 min): 3624.8 µg
Cumulative dissolution ([2]; pH6.8 PBS, 90 min): 5068.5 µg
Cumulative dissolution ([2]; pH6.8 PBS, 120 min): 6427.1 µg
IDR ([2]; pH6.8 PBS): 102.8372 μg/min/cm^2
Crystalline form and crystallinity after grinding (XRPD) [3]: decreases after grinding
Crystalline form and crystallinity after grinding (XRPD) ([3]; listed as Form A): decreases after grinding
Weight gain under 80% RH (Hygroscopicity by DVS): 0.21%
Weight gain under 80% RH (Hygroscopicity by DVS; listed as Form A): 0.21%
Hygroscopicity class (Hygroscopicity by DVS; weight gain under 80% RH): slightly hygroscopic
Tensile strength ([4]; T=2H/πDL*9.8): 0.33 MPa
Hardness ([4]; φ6 mm round tooling, after 24 h): 0.67 kgf
SMILES: Cc1nc(C(=O)NCC(=O)O)c(O)c2ccc(Oc3ccccc3)cc12 [WO2014014835 Form A, [(4-hydroxy-1-methyl-7-phenoxy-isoquinoline-3-carbonyl)-amino]-acetic acid, reference compound]
